Where two headings read alike, the source gives them in different places.
Molecular target: Human complement C1s enzyme (Homo sapiens (Human), UniProt P09871)
Assay: Human C1s enzyme assay
Assay type: biochemical
Settings: read-out: IC50 (Stars)
Summary of the method: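 Purified serum-derived human C1s (1.16 nM final) preincubated 5 min at room temperature with compound in 50 mM Tris, 1 M NaCl, pH 7.5. Z-L-Lys-SBzl thioester substrate and DTNB added (100 μM each, final); A405 read every 30 s for 30 min. IC50 from nonlinear regression of reaction rates against compound concentration.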

[1] = Human complement C1s enzyme 1.16 nM, substrate Z-L-Lys-SBzl 100 μM, assay of Example 3
[2] = Human C1s enzyme assay of Example 3
[3] = Human complement C1s enzyme 1.16 nM, substrate Z-L-Lys-SBzl, assay of Example 3

Human complement C1s enzyme, sequence (P09871 438-688 limits assumed): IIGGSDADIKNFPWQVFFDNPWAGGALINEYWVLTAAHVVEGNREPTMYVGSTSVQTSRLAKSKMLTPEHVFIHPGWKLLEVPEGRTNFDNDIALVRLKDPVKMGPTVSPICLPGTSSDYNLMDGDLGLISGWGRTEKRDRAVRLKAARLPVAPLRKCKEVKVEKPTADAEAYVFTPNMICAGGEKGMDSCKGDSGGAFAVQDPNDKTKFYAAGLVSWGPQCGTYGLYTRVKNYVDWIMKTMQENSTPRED
Human complement C1s enzyme, sequence (P09871 16-437 partner limits assumed): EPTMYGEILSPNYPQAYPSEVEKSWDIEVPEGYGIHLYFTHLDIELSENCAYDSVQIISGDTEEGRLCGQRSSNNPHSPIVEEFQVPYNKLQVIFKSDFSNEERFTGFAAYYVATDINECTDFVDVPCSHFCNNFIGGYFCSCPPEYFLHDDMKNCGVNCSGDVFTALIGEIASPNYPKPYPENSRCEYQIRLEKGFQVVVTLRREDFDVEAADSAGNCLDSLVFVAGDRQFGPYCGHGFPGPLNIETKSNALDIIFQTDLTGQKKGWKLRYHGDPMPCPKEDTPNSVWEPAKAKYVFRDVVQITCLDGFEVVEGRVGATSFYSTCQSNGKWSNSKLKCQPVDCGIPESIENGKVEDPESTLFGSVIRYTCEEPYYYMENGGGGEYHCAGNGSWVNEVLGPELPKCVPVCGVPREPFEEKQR

IC50 [1]	IC50 [2]	SMILES	other results
< 100 nM	–	C[C@@H](NC(=O)[C@@H]1CC2(CN1C(=O)CNC(=O)c1ccc3c(c1)Oc1ccccc1N3)OCCO2)c1cc(C(=N)N)cs1 [Compound 294, N-(2-((S)-8-(((R)-1-(4-carbamimidoylthiophen-2-yl)ethyl)carbamoyl)-1,4-dioxa-7-azaspiro[4.4]nonan-7-yl)-2-oxoethyl)-10H-phenoxazine-3-carboxamide]	–
< 100 nM	–	C[C@H](NC(=O)c1ccc(-c2ccccc2)cc1)C(=O)N1CC2(C[C@H]1C(=O)NCc1cc(C(=N)N)cs1)OCCO2 [Compound 300, (S)-7-(([1,1′-biphenyl]-4-carbonyl)-L-alanyl)-N-((4-carbamimidoylthiophen-2-yl)methyl)-1,4-dioxa-7-azaspiro[4.4]nonane-8-carboxamide]	–
< 100 nM	–	C[C@@H](NC(=O)[C@@H]1C[C@@H](S(C)(=O)=O)CN1C(=O)CNC(=O)c1ccc2c(c1)oc1ccccc12)c1cc(C(=N)N)cs1 [Compound 379, (2S,4R)—N—((R)-1-(4-carbamimidoylthiophen-2-yl)ethyl)-1-((dibenzo[b,d]furan-3-carbonyl)glycyl)-4-(methylsulfonyl)pyrrolidine-2-carboxamide]	–
< 100 nM	–	C[C@@H](NC(=O)[C@@H]1C[C@@H](S(C)(=O)=O)CN1C(=O)CNC(=O)c1ccc2c(c1)S(=O)(=O)c1ccccc1-2)c1cc(C(=N)N)cs1 [Compound 381, (2S,4R)—N—((R)-1-(4-carbamimidoylthiophen-2-yl)ethyl)-1-((5,5-dioxidodibenzo[b,d]thiophene-3-carbonyl)glycyl)-4-(methylsulfonyl) pyrrolidine-2-carboxamide]	–
< 100 nM	–	CC1c2ccccc2-c2ccc(C(=O)NCC(=O)N3C[C@H](OC(F)F)C[C@H]3C(=O)N[C@H](C)c3cc(C(=N)N)cs3)cc21 (stereo partly drawn) [Compound 357, (2S,4R)—N—((R)-1-(4-carbamimidoylthiophen-2-yl)ethyl)-4-(difluoromethoxy)-1-((9-methyl-9H-fluorene-2-carbonyl)glycyl)pyrrolidine-2-carboxamide]	–

Second part, the compound before the results:

SMILES	IC50 [1]	IC50 [2]	other results
C[C@@H](NC(=O)[C@@H]1C[C@]2(CN3CCOCC3)C[C@@H]2N1C(=O)CNC(=O)c1ccc2c(c1)-c1ccccc1C2(F)F)c1cc(C(=N)N)cs1 [Compound 267, (1S,3S,5S)—N—((R)-1-(4-carbamimidoylthiophen-2-yl)ethyl)-2-((9,9-difluoro-9H-fluorene-3-carbonyl)glycyl)-5-(morpholinomethyl)-2-azabicyclo [3.1.0]hexane-3-carboxamide]	< 100 nM	–	–
Cc1cc2c(cc1C(=O)NCC(=O)N1CC3(C[C@H]1C(=O)N[C@H](C)c1cc(C(=N)N)cs1)OCCO3)-c1ccccc1C2(F)F [Compound 237, (S)—N—((R)-1-(4-carbamimidoylthiophen-2-yl)ethyl)-7-((9,9-difluoro-2-methyl-9H-fluorene-3-carbonyl)glycyl)-1,4-dioxa-7-azaspiro[4.4]nonane-8-carboxamide]	< 100 nM	–	–
C[C@@H](NC(=O)[C@@H]1C[C@@H]([S@@](C)(=N)=O)CN1C(=O)CNC(=O)c1ccc2c(c1)-c1ccccc1C2(F)F)c1cc(C(=N)N)cs1 [Compound 252, (2S,4R)—N—((R)-1-(4-carbamimidoylthiophen-2-yl)ethyl)-1-((9,9-difluoro-9H-fluorene-3-carbonyl)glycyl)-4-((S)—S-methylsulfonimidoyl)pyrrolidine-2-carboxamide]	< 100 nM	–	–
N=C(N)c1csc(CNC(=O)[C@@H]2CC3(CN2C(=O)CNC(=O)c2ccc(-c4ccccc4)c(F)c2)OCCO3)c1 [Compound 141, (S)—N-((4-carbamimidoylthiophen-2-yl)methyl)-7-((2-fluoro-[1,1′-biphenyl]-4-carbonyl)glycyl)-1,4-dioxa-7-azaspiro[4.4]nonane-8-carboxamide]	–	< 100 nM	–
Cc1cc(C(=O)NCC(=O)N2C[C@H](OC(F)F)C[C@H]2C(=O)N[C@H](C)c2cc(C(=N)N)cs2)ccc1Oc1ccccc1 [Compound 24, (2S,4R)—N—((R)-1-(4-carbamimidoylthiophen-2-yl)ethyl)-4-(difluoromethoxy)-1-((3-methyl-4-phenoxybenzoyl)glycyl)pyrrolidine-2-carboxamide]	–	< 100 nM	–
CC1c2ccccc2-c2cc(C(=O)NCC(=O)N3C[C@H](OC(F)F)C[C@H]3C(=O)N[C@H](C)c3cc(C(=N)N)cs3)ccc21 (stereo partly drawn) [Compound 421, (2S,4R)-N-((R)-1-(4-carbamimidoylthiophen-2-yl)ethyl)-4-(difluoromethoxy)-1-((9-methyl-9H-fluorene-3-carbonyl)glycyl) pyrrolidine-2-carboxamide]	–	–	IC50 [3]: < 100 nM
CS(=O)(=O)[C@@H]1C[C@@H](C(=O)N[C@H](CO)c2cc(C(=N)N)cs2)N(C(=O)CNC(=O)c2ccc3c(c2)-c2ccccc2C3(F)F)C1 [Compound 400, (2S,4R)—N—((R)-1-(4-carbamimidoylthiophen-2-yl)-2-hydroxyethyl)-1-((9,9-difluoro-9H-fluorene-3-carbonyl)glycyl)-4-(methylsulfonyl)pyrrolidine-2-carboxamide]	–	–	IC50 [3]: < 100 nM
Nc1nc(-c2csc(CNC(=O)[C@@H]3CC4(CN3C(=O)CNC(=O)c3ccc(Oc5ccc(F)cc5)cc3)OCCO4)c2)cs1 [Compound 186, (S)—N-((4-(2-aminothiazol-4-yl)thiophen-2-yl)methyl)-7-((4-(4-fluorophenoxy)benzoyl)glycyl)-1,4-dioxa-7-azaspiro[4.4]nonane-8-carboxamide]	–	> 1000 nM	–
N=C(N)c1csc(CNC(=O)[C@@H]2CC3(CNC3)CN2C(=O)CNC(=O)CCCOc2ccccc2)c1 [Compound 273, (S)—N-((4-carbamimidoylthiophen-2-yl)methyl)-6-((4-phenoxybutanoyl)glycyl)-2,6-diazaspiro[3.4]octane-7-carboxamide]	< 100 nM	–	–
C[C@@H](NC(=O)[C@@H]1C[C@@H](OC(F)F)CN1C(=O)CNC(=O)c1ccc2cc3ccccc3cc2c1)c1cc(C(=N)N)cs1 [Compound 206, (2S,4R)-1-((anthracene-2-carbonyl)glycyl)-N—((R)-1-(4-carbamimidoylthiophen-2-yl)ethyl)-4-(difluoromethoxy)pyrrolidine-2-carboxamide]	< 100 nM	–	–
N=C(N)c1csc(CNC(=O)[C@@H]2CC3(CN2C(=O)CNC(=O)c2ccc(-c4ccccc4)cc2F)OCCO3)c1 [Compound 83, (S)—N-((4-carbamimidoylthiophen-2-yl)methyl)-7-((3-fluoro-[1,1′-biphenyl]-4-carbonyl)glycyl)-1,4-dioxa-7-azaspiro[4.4]nonane-8-carboxamide]	–	< 100 nM	–
COc1ccc2c(c1)C(F)(F)c1ccc(C(=O)NCC(=O)N3CC4(C[C@H]3C(=O)N[C@H](C)c3cc(C(=N)N)cs3)OCCO4)cc1-2 [Compound 191, (S)—N—((R)-1-(4-carbamimidoylthiophen-2-yl)ethyl)-7-((9,9-difluoro-7-methoxy-9H-fluorene-3-carbonyl)glycyl)-1,4-dioxa-7-azaspiro[4.4]nonane-8-carboxamide]	–	< 100 nM	–
C[C@@H](NC(=O)[C@@H]1CC2(CN1C(=O)CNC(=O)c1cccc(-c3ccc(F)cc3)c1)OCCO2)c1cc(C(=N)N)cs1 [Compound 112, (S)—N—((R)-1-(4-carbamimidoylthiophen-2-yl)ethyl)-7-((4′-fluoro-[1,1′-biphenyl]-3-carbonyl)glycyl)-1,4-dioxa-7-azaspiro[4.4]nonane-8-carboxamide]	–	< 100 nM	–
C[C@@H](NC(=O)[C@@H]1C[C@]2(C)C[C@@H]2N1C(=O)CNC(=O)c1ccc2c(c1)-c1ccccc1C2(F)F)c1cc(C(=N)N)cs1 [Compound 4, (1S,3S,5S)—N—((R)-1-(4-carbamimidoylthiophen-2-yl)ethyl)-2-((9,9-difluoro-9H-fluorene-3-carbonyl)glycyl)-5-methyl-2-azabicyclo[3.1.0]hexane-3-carboxamide]	–	< 100 nM	–
CC1(C)c2ccccc2-c2cc(C(=O)NCC(=O)N3CC4(C[C@H]3C(=O)NCc3cc(C(=N)N)cs3)OCCO4)ccc21 [Compound 60, (S)—N-((4-carbamimidoylthiophen-2-yl)methyl)-7-((9,9-dimethyl-9H-fluorene-3-carbonyl)glycyl)-1,4-dioxa-7-azaspiro[4.4]nonane-8-carboxamide]	–	< 100 nM	–
C[C@@H](NC(=O)[C@@H]1CC2(CN1C(=O)CNC(=O)c1ccc3c(c1)C(F)(F)c1ccccc1-3)OCCO2)c1cc(C(=N)N)cs1 [Compound 138, (S)—N—((R)-1-(4-carbamimidoylthiophen-2-yl)ethyl)-7-((9,9-difluoro-9H-fluorene-7-carbonyl)glycyl)-1,4-dioxa-7-azaspiro[4.4]nonane-8-carboxamide]	–	< 100 nM	–
CO[C@@H]1C[C@@H](C(=O)N[C@H](C)c2cc(C(=N)N)cs2)N(C(=O)CNC(=O)c2ccc3c(c2)-c2ccccc2C3(F)F)C1 [Compound 71, (2S,4R)—N—((R)-1-(4-carbamimidoylthiophen-2-yl)ethyl)-1-((9,9-difluoro-9H-fluorene-3-carbonyl)glycyl)-4-methoxypyrrolidine-2-carboxamide]	–	< 100 nM	–
O=C(NCC(=O)N1CC2(C[C@H]1C(=O)NCc1cc(Nc3nccs3)cs1)OCCO2)c1ccc(Oc2ccc(F)cc2)cc1 [Compound 282, (S)-7-((4-(4-fluorophenoxy)benzoyl)glycyl)-N-((4-(thiazol-2-ylamino)thiophen-2-yl)methyl)-1,4-dioxa-7-azaspiro[4.4]nonane-8-carboxamide]	> 1000 nM	–	–
N=C(N)c1csc(CNC(=O)[C@@H]2CC3(CN2C(=O)CNC(=O)c2ccc(-c4cnc5[nH]ccc5c4)cc2)OCCO3)c1 [Compound 195, (S)-7-((4-(1H-pyrrolo[2,3-b]pyridin-5-yl)benzoyl)glycyl)-N-((4-carbamimidoylthiophen-2-yl)methyl)-1,4-dioxa-7-azaspiro[4.4]nonane-8-carboxamide]	–	< 100 nM	–

From patent publication US20250346585A1 (Alexion Pharmaceuticals, Inc., priority 2022, published 2025)
